Columns and labels:
[1] = target: T1, G12C K-Ras4B (1-169) (Homo sapiens, UniProt P01116, G12C); test: Binding to KRAS G12C mutant, compound binding rate by LC-MS; conditions: final compound concentration 2 μM, 1 μM protein, 2 hours at 25° C.
T1 construct: G12C K-Ras4B (1-169) protein, which was a KRAS G12C mutant; His tag (N, cleaved yes); made in house; host or cells: E. coli BL21 (DE3)
From the text: K-Ras4B (1-169) protein was expressed in E. coli strain BL21 (DE3) by synthesizing a nucleotide sequence encoding the amino acid sequence represented by GenPept ID NP_004976 as a sequence optimized for E. coli by use of GeneArt Technology (Life Technologies Corp.) such that the protein was N-terminally His-tagged and fused with a TEV protease recognition sequence (ENLYFQG). The expressed His-tagged K-Ras4B (1-169) was purified through a Ni column, then cleaved at its tag with N-terminally His-tagged TEV protease, and passed through a Ni column again to recover a flow-through fraction, which was further purified by anion-exchange chromatography to obtain the protein. G12C K-Ras4B (1-169) protein, which was a KRAS G12C mutant, was obtained in the same way as in the K-Ras4B(1-169) protein except that glycine at position 12 of the amino acid sequence represented by GenPept ID NP_004976 was mutated to cysteine.
The K-Ras4B (1-169) protein and the G12C K-Ras4B (1-169) protein were mixed and diluted with a buffer solution (1×TBS and 0.1 mM TCEP) to prepare a protein solution containing 1 μM each of the proteins. Each test compound was dissolved at 10 mM in DMSO and further diluted 10-fold with DMSO to make a 1 mM solution. Then, the solution was diluted 5-fold with DMSO to make a 200 μM solution. The 200 μM solution was further diluted 5-fold to make a […] solution. 1 μL of the 40 μM test compound was added to 19 μL of the 1 μM protein solution such that the final compound concentration was 2 μM. The mixture was stored for 2 hours in an incubator of 25° C., and the reaction was terminated by the addition of 80 μL of a 1×TBS solution containing 0.2% formic acid, followed by LC-MS measurement.
The LC-MS measurement was performed by using Xevo G2-S Q-Tof manufactured by Waters Corp., performing reverse-phase chromatography with a desalting column, and obtaining mass spectra of positive ions by electrospray. For the mass spectra, spectra of polyvalent ions were collectively converted to molecular weights by the MaxEnt technique using OpenLynx software, and then, a compound binding rate was obtained from the ratio of […].
The binding rates of test compounds having a final compound concentration of 2 μM for G12C K-Ras4B (1-169) are shown in the table below. The binding rate for G12C K-Ras4B (1-169) is rated “A” for 80% or more, “B” for 60% or more and less than 80%, “C” for 40% or more and less than 60%, “D” for 20% or more and less than 40%, and “E” for less than 20%.

[2] = target: T2, KRAS G12C mutant (Homo sapiens, UniProt P01116, G12C); test: Inhibition of SOS1-mediated nucleotide (GDP-GTP) exchange reaction of KRAS G12C mutant, BODIPY FL GDP fluorescence; assay type: biochemical; conditions: preincubated 25° C. 4 hours with 25 nM KRAS G12C bound with BODIPY FL GDP; SOS1 100 nM, GppNHp 1 μM, 30 minutes
T2 construct: 50 μM G12C K-Ras4B (1-169) protein and 1 mM BODIPY® FL GDP; His tag (N, cleaved yes); made in house; host or cells: E. coli BL21 (DE3)
From the text: SOS1 protein was expressed in E. coli strain BL21 (DE3) by synthesizing a nucleotide sequence encoding the amino acid sequence represented by GenPept ID NP_005624 as a sequence optimized for E. coli by use of GeneArt Technology (Life Technologies Corp.) such that the protein was N-terminally His-tagged and fused with a TEV protease recognition sequence (ENLYFQG). The expressed His-tagged SOS1 (564-1049) was purified through a Ni column, then cleaved at its tag with N-terminally His-tagged TEV protease, and passed through a Ni column again to recover a flow-through fraction to obtain the protein.
Each compound was studied for its inhibitory effect on the exchange reaction of GDP into GppNHp in BODIPY® FL bound with the KRAS G12C mutant by fluorescence measurement using the G12C K-Ras4B (1-169) protein and the SOS1 protein.
For the preparation of the KRAS G12C mutant bound with BODIPY® FL GDP, first, 50 μM G12C K-Ras4B (1-169) protein and 1 mM BODIPY® FL GDP (Invitrogen Corp., G22360) were incubated for 1 hour in a buffer solution (20 mM Tris-HCl (pH 7.5), 50 mM NaCl, and 1 mM DTT) in ice in the presence of 2.5 mM EDTA. Then, MgCl2 was added thereto at a final concentration of 10 mM, then the mixture was incubated at room temperature for 30 minutes, and then, the protein was passed through a NAP-5 column for removal of free nucleotides and used for compound evaluation.
For the measurement of the inhibitory activity of compounds against nucleotide exchange reaction, first, the compound of the present invention was serially diluted with DMSO. Subsequently, the serially diluted solution of the compound of the present invention in DMSO (final concentration of DMSO: 5%) and the KRAS G12C mutant (25 nM) bound with BODIPY® FL GDP were added into a reaction buffer solution (20 mM Tris-HCl (pH 7.5), 100 mM NaCl, 1 mM MgCl2, 2 mM DTT, and 0.1% Tween 20), and the mixture was preincubated at 25° C. for 4 hours. Then, Son of Sevenless Homolog 1 (SOS1, amino acid region: 564-1049) and GppNHp (GMPPNP, Jena Bioscience GmbH, NU-401-50) were added thereto at final concentrations of 100 nM and 1 μM, respectively, and the mixture was reacted for 30 minutes. The change in fluorescence intensity of BODIPY® FL (excitation wavelength: 485 nm, fluorescence wavelength: 520 nm) between immediately after the start of reaction and after 30 minutes from the start of reaction was standardized, and then, the compound concentration at which 50% inhibition was achieved was calculated as IC50 (nM) when the signal value for only DMSO was defined as 0% inhibition and the signal value for no addition of GppNHp was defined as 100% inhibition.

SMILES | binding rate for G12C K-Ras4B (1-169) [1] | IC50 [2]
C=CC(=O)N1CC(NC(=O)c2ccc(CNc3cc(C(C)(C)C)c(Cl)cc3O)s2)C1 [Example 7, N-(1-Acryloylazetidin-3-yl)-5-(((5-(tert-butyl)-4-chloro-2-hydroxyphenyl)amino)methyl)thiophene-2-carboxamide] | A (80% or more) | 1510 nM
C=CC(=O)N1CC(NC(=O)c2ccc(CNc3cc(C(C)C)c(Cl)cc3O)o2)C1 [Example 48, N-(1-Acryloylazetidin-3-yl)-5-(((4-chloro-2-hydroxy-5-isopropylphenyl)amino)methyl)furan-2-carboxamide] | D (20% or more and less than 40%) | 3970 nM
C=CC(=O)N1CC(NC(=O)c2cnc(CNc3cc(CC(F)(F)F)c(Cl)cc3O)n2C)C1 [Example 56, N-(1-Acryloylazetidin-3-yl)-2-(((4-chloro-2-hydroxy-5-(2,2,2-trifluoroethyl)phenyl)amino)methyl)-1-methyl-1H-imidazole-5-carboxamide] | E (less than 20%) | 599 nM
C=CC(=O)N1CC(NC(=O)c2cnc(CNc3cc(C(C)C)c(Cl)cc3O)n2C)C1 [Example 60, N-(1-Acryloylazetidin-3-yl)-2-(((4-chloro-2-hydroxy-5-isopropylphenyl)amino)methyl)-1-methyl-1H-imidazole-5-carboxamide] | A (80% or more) | 37 nM
C=CC(=O)N1CC(N(C)C(=O)c2coc(CNc3cc(C(C)(C)C)c(Cl)cc3O)c2)C1 [Example 33, N-(1-Acryloylazetidin-3-yl)-5-(((5-(tert-butyl)-4-chloro-2-hydroxyphenyl)amino)methyl)-N-methylfuran-3-carboxamide] | E (less than 20%) | 1490 nM

More lines, in order of falling IC50 [2], values ahead:

binding rate for G12C K-Ras4B (1-169) [1] | IC50 [2] | SMILES
E (less than 20%) | 9800 nM | C=CC(=O)N1CC(NC(=O)c2ccc(CNc3cc(C(C)(C)C)ccc3O)o2)C1 [Example 66, N-(1-Acryloylazetidin-3-yl)-5-(((5-(tert-butyl)-2-hydroxyphenyl)amino)methyl)furan-2-carboxamide]
C (40% or more and less than 60%) | 954 nM | C=CC(=O)N1CC(NC(=O)c2ncc(CNc3cc(C(C)(C)C)c(Cl)cc3O)o2)C1 [Example 12, N-(1-Acryloylazetidin-3-yl)-5-(((5-(tert-butyl)-4-chloro-2-hydroxyphenyl)amino)methyl)oxazole-2-carboxamide]
E (less than 20%) | 463 nM | C=CC(=O)N1CC(N(C)C(=O)c2sc(CNc3cc(C(C)(C)C)c(Cl)cc3O)nc2C)C1 [Example 35, N-(1-Acryloylazetidin-3-yl)-2-(((5-(tert-butyl)-4-chloro-2-hydroxyphenyl)amino)methyl)-N,4-dimethylthiazole-5-carboxamide]
A (80% or more) | 420 nM | C=CC(=O)N1CC(NC(=O)c2nc(CNc3cc(C(C)(C)C)c(Cl)cc3O)co2)C1 [Example 14, N-(1-Acryloylazetidin-3-yl)-4-(((5-(tert-butyl)-4-chloro-2-hydroxyphenyl)amino)methyl)oxazole-2-carboxamide]
D (20% or more and less than 40%) | 128 nM | C=CC(=O)N1CC(NC(=O)c2c(C)nc(C(O)c3cc(C(C)(C)C)c(Cl)cc3O)n2C)C1 (stereo not shown) [Example 91, N-(1-Acryloylazetidin-3-yl)-2-((5-(tert-butyl)-4-chloro-2-hydroxyphenyl) (hydroxy)methyl)-1,4-dimethyl-1H-imidazole-5-carboxamide]
B (60% or more and less than 80%) | 69 nM | C=CC(=O)N1CC(NC(=O)c2cnc(CNc3cc(C(C)(C)C)c(Cl)c(F)c3O)n2C)C1 [Example 73, N-(1-Acryloylazetidin-3-yl)-2-(((5-(tert-butyl)-4-chloro-3-fluoro-2-hydroxyphenyl)amino)methyl)-1-methyl-1H-imidazole-5-carboxamide]
